Values joined by “and” are separate entries in the source; they are usually repeats but may differ in a detail not shown here. Equal values may be shown once. One block for each compound: values may come before it.
Assays:
HCV = conditions: monotherapy, cited from earlier work
[1] = system: CFU-GM (human bone marrow cells); assay: Human bone marrow toxicity CFU-GM clonogenic assay; conditions: read-out: IC50 CFU-GM, colony formation after 14 to 18 days
[2] = system: BFU-E (human bone marrow cells); assay: Human bone marrow toxicity BFU-E clonogenic assay; conditions: read-out: IC50 BFU-E, colony formation after 14 to 18 days
[3] = Bioavailability assay in Cynomolgus monkeys; format: in vivo, cynomolgus monkey; conditions: for Norm AUC: individual monkeys, AUC normalised to dose in mg; for Mean Norm AUC: mean of 3 monkeys
Experimental: Within 1 week prior to the study initiation, the cynomolgus monkey was surgically implanted with a chronic venous catheter and subcutaneous venous access port (VAP) to facilitate blood collection and underwent a physical examination including hematology and serum chemistry evaluations and the body weight was recorded. […] Each dosing syringe was weighed before dosing to gravimetrically determine the quantity of formulation administered. Urine samples were collected via pan catch at the designated intervals (approximately 18-0 hours pre-dose, 0-4, 4-8 and 8-12 hours post-dosage) and processed.

SMILES: NC(=O)c1ncn([C@@H]2O[C@H](CO)[C@@H](O)[C@H]2O)n1 [ribavirin, 1-β-D-ribofuranosyl-1-1,2,4-triazole-3-carboxamide]
effect on serum levels of HCV-RNA (HCV; HCV patients): does not lower serum levels of HCV-RNA | patients in whom serum amino transferase levels are reduced to normal (HCV): 40%

SMILES: C[C@@]1(O)[C@H](O)[C@@H](CO)O[C@H]1n1cnc2c(N)ncnc21 [β-D-2′-CH3-riboA, 2′-C-methylriboadenine]
IC50 [1]: > 100 µM | IC50 [2]: > 100 µM

CL ([3]; IV 10 mg/kg): 21.3 ± 8 mL/min/kg | Cmax ([3]; IV 10 mg/kg): 6945.6 ± 1886.0 ng/mL | T1/2 ([3]; IV 10 mg/kg): 7.9 ± 5.4 h | Tmax ([3]; IV 10 mg/kg): 0.25 ± 0.00 h | Vss ([3]; IV 10 mg/kg): 2.09 ± 0.54 L/kg | AUC ([3]; IV 10 mg/kg, mean ± spread): 8758.0 ± 4212.9 ng·h/mL | Mean Norm AUC ([3]; IV): 284.9 ng·h/mL/mg | Cmax ([3]; PO 10 mg/kg): 217.7 ± 132.1 ng/mL | T1/2 ([3]; PO 10 mg/kg): 10.3 ± 4.1 h | Tmax ([3]; PO 10 mg/kg): 2.00 ± 1.00 h | AUC ([3]; PO 10 mg/kg, mean ± spread): 1166.0 ± 589.6 ng·h/mL | Mean Norm AUC ([3]; PO): 38.8 ng·h/mL/mg | F (oral bioavailability) ([3]; Table 2, PO vs IV mean norm AUC): 13.6% | F ([3]; Table 3, 10 mg/kg PO vs IV): 13.8%
SMILES: C[C@@]1(O)[C@H](O)[C@@H](CO)O[C@H]1n1cnc2c(=O)[nH]c(N)nc21 [β-D-2′-CH3-riboG]
IC50 [1]: > 10 µM | IC50 [2]: > 100 µM | AUC ([3]; IV bolus 10 mg/kg, individual monkeys 1-3, 10 mg/kg): 6079 ng·h/mL and 13614 ng·h/mL and 6581 ng·h/mL | Norm AUC ([3]; IV): 293.4 ng·h/mL/mg and 293.2 ng·h/mL/mg and 268.3 ng·h/mL/mg | AUC ([3]; PO gavage 10 mg/kg, individual monkeys 1-3, 10 mg/kg): 758 ng·h/mL and 898 ng·h/mL and 1842 ng·h/mL | Norm AUC ([3]; PO): 26.1 ng·h/mL/mg and 29.0 ng·h/mL/mg and 61.3 ng·h/mL/mg

— US8299038B2, “Methods and compositions for treating hepatitis C virus” (Idenix Pharmaceuticals, Inc., priority 2000, dated 2012)
